Here are results for four compounds from patent US6713607B2 (Wyeth, priority 1994, dated 2004).

The test system of test [1] is mitogen-stimulated thymocyte proliferation. Put plainly: LAF, mitogen-stimulated thymocyte proliferation assay. The test is classed as cell-based, murine.
Test [2] addresses FKBP12 (Homo sapiens, UniProt P62942). As to the kind of experiment: Inhibition of PPIase activity of FKBP12. The test is classed as biochemical. To be noted: read-out: PPlase(Ki).
The target in test [3] is T1, 210 kDa Protein (Homo sapiens, UniProt P42345+P62942).
T1 construct: These proteins are isolated from membrane preparations of Molt 4 T cell leukemia; endogenous in cells; host or cells: Molt 4 cells (CHAPSO-solubilized membrane fraction); The partner GST-FKBP12 was made in house in recombinant E. coli (pGEX-FKBP)
T1 sequence (P62942 whole entry, other chains not shown): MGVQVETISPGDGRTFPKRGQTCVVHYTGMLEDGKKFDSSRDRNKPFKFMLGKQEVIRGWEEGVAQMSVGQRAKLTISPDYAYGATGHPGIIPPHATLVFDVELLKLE
As to the kind of experiment: Affinity isolation of the 210 kDa protein from Molt 4 membrane preparations with GST-FKBP12 complexed to rapamycin or analog (binding of analog-FKBP12 complexes). To be noted: isolation procedure of Example 1, Molt 4 cells.
Procedure: Molt 4 cells (1×10^9) were grown in standard media (RPMI 1640 containing 100 U/ml pennicillin, 100 ug/ml L-glutamine, 10% FCS). The cells were harvested and rinsed 3× with PBS (50 mM phosphate buffer, pH 7.0, 150 mM NaCl), flash frozen in dry-ice ethanol bath and stored at −80° C. On ice, the cells were thawed and lysed using a dounce homogenizer with B pestle in 5 ml of buffer A (10 mM Hepes, pH 7.5, 20 mM KCl, 1 mM EDTA, 0.4 mM PMSF and 2 mM 2-ME). After the debris was cleared by centrifugation at 1600 g for 10 min. and the membrane fraction was concentrated by 100,000 g centrifugation (1 hour), the 100,000 g pellet was incubated in 3 ml buffer B (50 mM Tris, pH 7.2, 100 mM NaCl, 20 mM KCl, 0.2 mM PMSF, 1 mM 2-ME, 2 mM CaCl2, 2 mM MgCl2, 5 μg/ml aprotinin, leupeptin, pepstatin A and antipain), containing 12 mM CHAPSO for two hours at 4° C. The solubilized membrane proteins were separated from the debris by a 100,000 g centrifugation. […] The supernatant was then incubated for 2 hours at 4° C. with 100 ul glutathione resin (1:1 Buffer B). Nonspecific proteins were rinsed 5× with buffer C (buffer B+0.1% Triton×100) and the proteins eluted from the resin in Laemli buffer by incubation at 95° C. for 3 minutes and microcentrifugation. The proteins were separated by size using a 7% SDS-PAGE followed by silver stain.

In test [4] the target is 210 kDa Protein (Homo sapiens, UniProt P42345). Put plainly: Modified isolation procedure: no exogenous FKBP, streptavidin-conjugated resin in place of glutathione resin. The test is classed as binding.

FKBP12, sequence (P62942 whole entry, species assumed): as the sequence (P62942 whole entry, other chains not shown) above

By IC50 is commonly meant the concentration at which inhibition is half-maximal. On to `C=CC[C@@H]1/C=C(\C)C[C@H](C)C[C@H](OC)[C@H]2O[C@@](O)(C(=O)C(=O)N3CCCC[C@H]3C(=O)O[C@H](/C(C)=C/[C@@H]3CC[C@@H](O)[C@H](OC)C3)[C@H](C)[C@@H](O)CC1=O)[C@H](C)C[C@@H]2OC` [FK506], for which the IC50 in test [1] (Mus musculus, Thymocyte) amounted to 3 nM.

In test [1] (Mus musculus, Thymocyte), `CO[C@H]1C[C@@H]2CC[C@@H](C)[C@@](O)(O2)C(=O)C(=O)N2CCCC[C@H]2C(=O)O[C@H]([C@H](C)C[C@@H]2CC[C@@H](O)[C@H](OC)C2)CC(=O)[C@H](C)/C=C(\C)[C@@H](O)[C@@H](OC)C(=O)[C@H](C)C[C@H](C)/C=C/C=C/C=C/1C` [RAPA, Rapamycin] showed a half-maximal inhibitory concentration (IC50) of 6 nM.

Broadly, the Ki is the equilibrium dissociation constant of an inhibitor or competing ligand from its target. With `COC1CC2CCC(C)C(O)(O2)C(=O)C(=O)N2CCCCC2C(=O)OC(C(C)CC2CCC(O)C(OC)C2)CC(=O)C(C)/C=C(\C)C(O)CC(=O)C(C)CC(C)/C=C/C=C/C=C/1C` (stereo not shown) [demethoxyrapamycin], in test [2], the Ki was found to be 4.4 nM. For the same compound, in test [1] (mitogen-stimulated thymocyte proliferation, FK506: mechanism of action is different), the IC50 is 58 nM. Besides, in test [3], the “210 kDa protein isolated with compound:GST-FKBP12 complex (in words)” value was “same proteins were isolated”.

Consider `COC1CC2CCC(C)C(O)(O2)C(=O)C(=O)N2CCCCC2C(=O)OC(C(C)CC2CCC(OC(=O)CNC(=O)CCCCC3SCC4NC(=O)NC43)C(OC)C2)CC(=O)C(C)C=C(C)C(O)C(OC)C(=O)C(C)CC(C)C=CC=CC=C1C` (stereo not shown) [rapamycin-42-biotin glycinate ester], for which the “immunosuppressive activity in the LAF assay (in words)” value in test [1] was “equivalent immunosuppressive activity”. Besides, the “210 kDa protein isolated by modified procedure (in words)” value in test [4] is on record as “Only background levels”.
